Results from paper PMC3151534 (Bioorganic & medicinal chemistry, 2010).
“And” between values parts separate entries of the source, which are not always exact repeats. Equal entries are not always repeated.

What was measured:
[1] = tested on: STAT5; assay: STAT5 fluorescence polarization; type: binding; details: data not shown
[2] = tested on: STAT3–STAT3:DNA binding activity in NIH3T3/vSrc; type: cell-based, mouse; details: 100 μM; for suppression of STAT3-DNA binding activity (in words): 6 and 24 hrs
[3] = in vitro; details: human; for recovery at 90 min, 10 μM: Caco-2
[4] = target: STAT3-SH2 domain (Mus musculus, UniProt P42227); assay: STAT3 fluorescence polarization; type: binding, murine; details: non-phosphorylated analogs; data not shown
Sequence of STAT3-SH2 domain (P42227 whole entry, the tested form may be a part): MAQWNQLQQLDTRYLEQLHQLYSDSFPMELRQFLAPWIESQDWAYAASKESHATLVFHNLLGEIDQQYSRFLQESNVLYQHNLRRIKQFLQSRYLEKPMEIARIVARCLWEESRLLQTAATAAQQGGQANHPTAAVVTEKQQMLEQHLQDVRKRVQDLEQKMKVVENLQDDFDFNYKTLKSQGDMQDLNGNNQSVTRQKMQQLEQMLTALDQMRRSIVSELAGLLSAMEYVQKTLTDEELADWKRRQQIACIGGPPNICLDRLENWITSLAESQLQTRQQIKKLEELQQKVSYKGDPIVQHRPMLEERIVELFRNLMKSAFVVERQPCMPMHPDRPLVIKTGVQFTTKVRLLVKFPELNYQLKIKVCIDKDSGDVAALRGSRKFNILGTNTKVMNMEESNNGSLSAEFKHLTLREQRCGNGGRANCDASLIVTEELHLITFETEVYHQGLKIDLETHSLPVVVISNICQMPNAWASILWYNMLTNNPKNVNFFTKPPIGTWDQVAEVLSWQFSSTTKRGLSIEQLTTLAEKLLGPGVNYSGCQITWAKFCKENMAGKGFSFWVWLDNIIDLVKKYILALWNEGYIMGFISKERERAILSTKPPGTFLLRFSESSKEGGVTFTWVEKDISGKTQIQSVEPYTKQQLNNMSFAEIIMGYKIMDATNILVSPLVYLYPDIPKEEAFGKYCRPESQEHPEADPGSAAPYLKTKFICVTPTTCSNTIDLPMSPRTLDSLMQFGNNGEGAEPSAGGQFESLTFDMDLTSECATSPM

[5] = Permeability and efflux analysis in Caco-2 cells; details: human
[6] = target: gp130 (Homo sapiens) (UniProt P40189); assay: SPR; details: cited from earlier work
Sequence of gp130 (Homo sapiens) (P40189 whole entry, looked up): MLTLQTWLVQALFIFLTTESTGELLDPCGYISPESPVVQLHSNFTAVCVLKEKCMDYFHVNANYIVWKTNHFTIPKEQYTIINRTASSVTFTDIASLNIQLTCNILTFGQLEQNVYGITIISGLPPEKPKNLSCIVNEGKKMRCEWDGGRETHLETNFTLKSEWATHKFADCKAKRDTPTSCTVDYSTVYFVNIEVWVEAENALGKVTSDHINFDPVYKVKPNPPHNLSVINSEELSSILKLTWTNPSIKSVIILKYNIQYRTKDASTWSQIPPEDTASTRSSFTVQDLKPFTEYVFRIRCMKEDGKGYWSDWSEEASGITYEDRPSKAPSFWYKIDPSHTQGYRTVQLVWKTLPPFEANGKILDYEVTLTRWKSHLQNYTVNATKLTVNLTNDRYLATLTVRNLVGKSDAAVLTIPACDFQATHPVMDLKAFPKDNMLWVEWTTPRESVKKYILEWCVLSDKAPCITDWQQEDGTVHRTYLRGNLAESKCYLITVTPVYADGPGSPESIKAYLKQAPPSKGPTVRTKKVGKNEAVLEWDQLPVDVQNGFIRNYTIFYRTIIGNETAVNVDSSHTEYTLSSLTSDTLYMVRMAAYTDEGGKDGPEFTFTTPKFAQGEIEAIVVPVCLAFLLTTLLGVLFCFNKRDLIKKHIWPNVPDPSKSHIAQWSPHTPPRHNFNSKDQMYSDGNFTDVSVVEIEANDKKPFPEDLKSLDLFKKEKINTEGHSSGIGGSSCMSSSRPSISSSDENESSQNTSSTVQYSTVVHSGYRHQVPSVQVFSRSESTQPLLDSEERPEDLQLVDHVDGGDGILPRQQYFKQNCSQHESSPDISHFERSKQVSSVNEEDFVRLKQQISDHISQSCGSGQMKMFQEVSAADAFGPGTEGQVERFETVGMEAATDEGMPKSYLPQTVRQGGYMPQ

[7] = tested on: tumor cells; details: cited from earlier work
[8] = tested on: DU145, Panc-1, NIH3T3/vSrc and MDA468 cells; type: cell-based; details: 24 hrs, lower concentrations; data not shown

Sequence of STAT3 (P40763 2-770): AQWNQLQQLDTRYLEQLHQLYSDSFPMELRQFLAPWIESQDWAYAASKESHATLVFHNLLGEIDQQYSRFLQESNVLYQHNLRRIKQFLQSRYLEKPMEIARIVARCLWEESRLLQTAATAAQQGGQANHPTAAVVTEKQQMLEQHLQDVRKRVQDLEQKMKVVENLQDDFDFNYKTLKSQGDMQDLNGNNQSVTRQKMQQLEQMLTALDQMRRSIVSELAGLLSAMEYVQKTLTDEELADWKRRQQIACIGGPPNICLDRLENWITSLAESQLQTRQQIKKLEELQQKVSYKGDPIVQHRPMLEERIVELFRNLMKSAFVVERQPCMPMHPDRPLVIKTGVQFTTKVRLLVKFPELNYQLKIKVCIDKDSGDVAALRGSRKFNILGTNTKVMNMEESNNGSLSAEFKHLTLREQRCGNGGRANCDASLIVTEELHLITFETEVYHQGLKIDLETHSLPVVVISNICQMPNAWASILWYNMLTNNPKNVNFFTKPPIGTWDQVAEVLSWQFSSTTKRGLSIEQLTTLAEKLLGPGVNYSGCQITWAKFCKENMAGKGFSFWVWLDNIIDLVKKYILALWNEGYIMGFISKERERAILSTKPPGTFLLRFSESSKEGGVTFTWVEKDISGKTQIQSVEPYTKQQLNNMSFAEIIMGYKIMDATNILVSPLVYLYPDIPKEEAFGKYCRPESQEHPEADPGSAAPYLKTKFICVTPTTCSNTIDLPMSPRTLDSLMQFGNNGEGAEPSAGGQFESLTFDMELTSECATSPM

CC(C)C[C@H](NC(=O)[C@H](Cc1ccc(OP(=O)(O)O)cc1)NC(=O)c1ccc(C#N)cc1)C(=O)Nc1ccc(C(=O)NCc2ccccc2)c(-c2ccc(C(N)=O)cc2)c1 [Inhibitor 14aa, 4-((S)-3-((S)-1-(6-(benzylcarbamoyl)-4′-carbamoylbiphenyl-3-ylamino)-4-methyl-1-oxopentan-2-ylamino)-2-(4-cyanobenzamido)-3-oxopropyl)phenyl dihydrogen phosphate]
effect on STAT5 in FP assay [1]: no effect | STAT3 activity after 24 h [2]: partially recovered | suppression of STAT3-DNA binding activity ([2]; after 6 h): 80% and > 80% | recovery at 90 min, 10 μM [3]: 1 to 2%

CC(C)C[C@H](NC(=O)[C@H](Cc1ccc(O)cc1)NC(=O)c1ccc(C#N)cc1)C(=O)Nc1cc(C(=O)NCc2ccccc2)cc(-c2ccc(C(N)=O)cc2)c1 [Inhibitor 14ba-OH, N^3-benzyl-5-((S)-2-((S)-2-(4-cyanobenzamido)-3-(4-hydroxyphenyl)propanamido)-4-methylpentanamido)-[1,1′-biphenyl]-3,4′-dicarboxamide]
inhibition of the STAT3–phosphopeptide complex (FP) [4]: neither peptidomimetic inhibited | suppression of STAT3-DNA binding activity (in words) [2]: negligible disruption | Papp at 90 min, 10 μM [5]: < 2 ×10⁻⁶ cm/s

CC(C)C[C@H](NC(=O)[C@H](Cc1ccc(O)cc1)NC(=O)c1ccc(C#N)cc1)C(=O)Nc1ccc(C(=O)NCc2ccccc2)c(-c2ccc(C(N)=O)cc2)c1 [Inhibitor 14aa-OH]
inhibition of the STAT3–phosphopeptide complex (FP) [4]: neither peptidomimetic inhibited | suppression of STAT3-DNA binding activity (in words) [2]: almost the same potency as 14aa | Papp at 90 min, 10 μM [5]: < 2 ×10⁻⁶ cm/s

STAT3 (from UniProt P40763)
Kd [6]: 24 nM

CC(C)C[C@H](NC(=O)[C@H](Cc1ccc(OP(=O)(O)O)cc1)NC(=O)c1ccc(C#N)cc1)C(=O)O [ISS610]
dosage required for cellular activities [7]: mM dosages

CC(C)C[C@H](NC(=O)[C@H](Cc1ccc(OP(=O)(O)O)cc1)NC(=O)c1ccc(C#N)cc1)C(=O)Nc1cc(C(=O)NCc2ccccc2)cc(-c2ccc(C(N)=O)cc2)c1 [Inhibitor 14ba, 4-((S)-3-(((S)-1-((5-(benzylcarbamoyl)-4′-carbamoyl-[1,1′-biphenyl]-3-yl)amino)-4-methyl-1-oxopentan-2-yl)amino)-2-(4-cyanobenzamido)-3-oxopropyl)phenyl dihydrogen phosphate]
effect on STAT5 in FP assay [1]: no effect | STAT3 activity after 24 h [2]: partially recovered | anti-cancer activity (cell viability, in words) [8]: only limited anti-cancer activity | recovery at 90 min, 10 μM [3]: 1 to 2% | Papp A→B at 90 min, 10 μM ([3]; Caco-2, pH 7.4): < 0.5 ×10⁻⁶ cm/s
